# From patent publication US20260266837A1, “Methods for Cancer Recurrence Detection and Treatment Thereof” (Institut Curie, priority 2022, published 2026)
# Columns and labels:
# [1] = tested on: patient-derived xenograft (PDX) models PDX_95, PDX_39 & PDX_172 established from patients with residual TNBC; test: Capecitabine treatment of TNBC patient-derived xenograft models; type: in vivo, mice; conditions: oral Capecitabine
# Excerpt: Patient samples and PDX models. Patient samples used in this study (n=9) originated from patient treated at Institut Curie with residual triple-negative breast cancers post-neoadjuvant chemotherapy, who gave informed consent for the profiling. In this study, we used three xenograft models generated from three different residual triple-negative breast cancers post-neoadjuvant chemotherapy (HBCx95 called PDX_95, HBCx39 called PDX_39 and HBCx172 called PDX_172 in the manuscript, see Extended Table2) established previously at Curie Institute with informed consent from the patient^46,47. Female Swiss nude mice were purchased from Charles River Laboratories and maintained under specific-pathogen-free conditions. Mouse care and housing were in accordance with institutional guidelines and the rules of the French Ethics Committee (project authorization no. 02163.02).
# FIG. 1b: Five mice were not treated and kept as controls (termed “untreated”) and twenty-seven mice were treated orally with Capecitabine (Xeloda; Roche Laboratories) at a dose of 540 mg/kg, 5 d/week for 6 to 14 weeks. Relative tumor volumes (mm3) were measured as described previously^18. Eight mice were sacrificed after the first round of chemotherapy to study “residual” tumors (2 mice) or “persister” (6 mice) human tumor cells. […]
# [2] = tested on: MDA-MB-468, BT20 and HCC38; test: Number of persister cells after EZH2i pre-treatment and 5-FU; type: cell-based, human; conditions: 10 days pre-treatment, then 5-FU for 21 days
# Experimental: Cell lines, culture conditions and drug treatments. […] All cell lines were cultured in a humidified 5% CO2 atmosphere at 37° C., and were tested as mycoplasma negative. […] Cells were treated with 5 μM of 5-FU (Sigma, Ref: […]) alone or in combination with KDM6A/Bi or EZH2i for indicated days. […] Cell proliferation, doubling time and IC50. MDA-MB-468, HCC38 and BT20 cells were stained with Trypan Blue (Invitrogen, Ref: T10282) exclusion test, and counted using a Countess automated cell counter (Invitrogen, Ref: C10228) at indicated time of treatment (FIG. 4a and Extended FIG. 8a/d/f).
# MDA-MB-468 cells = test: Lineage barcode frequencies and diversity under 5-FU with EZH2i; type: cell-based, human; conditions: co-treatment with 5-FU, bulk lineage barcodes
# Excerpt: Lentivirus packaging and cell transduction. Lentivirus was produced by transfecting the barcode plasmids pRRL-CMV-GFP-BCv2Ascl and p8.9-QV and pVSVG into HEK293T cells as previously described^30. MDA-MB-468 cells from ATCC were infected at passage 11 with lentivirus produced from the barcode library (pRRL-CMV-GFP-BCv 2Ascl) which includes 18206 different barcodes of 20 bp of a random stretch, at a low multiplicity of infection (MOI 0.1) to minimize the number of cells marked by multiple barcodes. Three weeks after transduction, cells were sorted for GFP expression to select cells with barcode insertion, and used for drug treatment.
# Bulk lineage barcode library preparation and sequencing. Lineage barcodes are recovered by isolating genomic DNA from cells of interest (NucleoSpin Tissue, Mini kit for DNA from cells and tissue, Macherey Nagel, Ref: 740952.50). From the isolated genomic DNA, barcodes are amplified with three nested PCR steps as decribed in^30 (see Extended Table 1 for primer sequence). In short, after a first specific PCR for the common region of the lineage barcodes, the amplified material was prepared for sequencing by addition of the illumina sequencing adaptaters and indexing and purification. Sequencing was done in order to obtain 50 reads, on average, per barcoded cell.
# Single-cell lineage barcode extraction from 10× datasets. […] To avoid running scripts on all reads we: 1. used samtools to extract all unmapped reads from the 10× output bam file, 2. used awk to take reads with either a 3′ or 5′ 20 bp match to the constant flanking region of the barcode allowing one mismatch, 3. retained only reads with both a 10× cell barcode and 10× UMI. We then located the 20 bp match to one of the constant flanking regions allowing one mismatch (but filtered out reads where a mismatch was in the first or last base to ensure the barcode is at the expected position). We then further required a 4 bp exact match on the other side of the barcode, and then extracted the 20 bp viral barcode, read name, 10× cell barcode and 10× UMI.
# To assign one viral barcode to each 10× cell barcode, we determined a consensus viral barcode for each UMI. For each position in the barcode we returned the most frequently observed base and the proportion of reads supporting this consensus. Barcodes associated with a 10× CB-UMI pair were filtered if the proportion of reads supporting a position was ≤0.5 at ≥3 positions. […]
# Bulk barcode pre-processing. […] In brief, using R-3.4.0 (R Development Core Team (2019) http://www.R-project.org), raw reads were first filtered for perfect to the input index-and common-sequences using XCALIBR (https://github.com/NKI-GCF/xcalibr) and filtered against the barcode reference list. […]
# MDA-MB-468 [3] = test: Prolonged 5-FU treatment, cell proliferation and survival; type: cell-based, human
# Experimental: (§1) Cell lines, culture conditions and drug treatments. MDA-MB-468 cells were cultured in DMEM (Gibco-BRL, Ref: 11966025), supplemented with 10% heat-inactivated fetal calf serum (Gibco-BRL, Ref: 10270-106). HCC38 and BT20 cell lines were cultured in RPMI 1640 (Gibco-BRL, Ref: 11875085), supplemented with 10% heat-inactivated fetal calf serum. […] Cells were treated with 5 μM of 5-FU (Sigma, Ref: F6627) alone or in combination with KDM6A/Bi or EZH2i for indicated days. For EZH2i, cells were pretreated with UNC 1999, UNC 2400 or GSK 126 for 10 days before the addition of 5-FU for an additional 21 days (FIG. 4 and Extended FIG. 8).
# [4] = tested on: MDA-MB-468 untreated and chemoresistant cells; test: XTT cell cytotoxicity, IC50 to 5-FU; type: cell-based, human; conditions: resistant cells after over 15 weeks of 5-FU, 72 h XTT
# Experimental: MDA-MB-468 untreated and chemoresistant cells were plated in 96 multi-well plates at a density of 10,000 cells per well and treated with increased concentration of 5-FU (1 μM to 0.5M) for 72 h. Cell cytotoxicity was assayed with XTT kit (Sigma, Ref: 11465015001) and IC 50 was calculated as the concentration of 5-FU that is required to obtain 50% of cell viability (Extended FIG. 2b).
# MDA-MB-468 [5] = test: Colony forming assay and persister cell count, 5-FU with KDM6A/Bi; type: cell-based, human
# Experimental: as §1, with “serum. All cell lines were cultured in a humidified 5% CO2 atmosphere at 37° C., and were tested as mycoplasma negative.” for “serum.”
# (§2) Colony forming assay. TBNC cells were plated in 6 multi-well plates at a density of 200,000 cells per well and treated with the indicated drugs for 60 days (MDA-MB-468, FIG. 5a/b and Extended FIG. 9b) or 56 days (BT20) or 50 days (HCC38) (Extended FIG. 9). Cultures were incubated in humidified 37° C. incubators with an atmosphere of 5% CO2 in air, and treated plates were monitored for growth using a microscope. At the time of maximum foci formation, colony formation was evaluated after a staining with 0.5% Crystal Violet (Sigma, ref: C 3886).
# BT20 and HCC38 = test: Colony forming assay, 5-FU with KDM6A/Bi, additional TNBC cell lines; type: cell-based, human; conditions: BT20 and HCC38, 5-FU
# Experimental: as §1, with “serum. All cell lines were cultured in a humidified 5% CO2 atmosphere at 37° C., and were tested as mycoplasma negative.” for “serum.”
# as §2
# tumors in mice = test: Capecitabine and GSK-J4 treatment of mice, tumor volume and disease-free survival; type: in vivo
# Experimental: FIG. 5c: Five mice were treated intraperitoneally with DMSO, five mice were treated intraperitoneally with GSK-J4 alone at a dose of 50 mg/kg, 5 d/week for 25 days. Twenty-five mice were treated orally with Capecitabine at a dose of 540 mg/kg, 5 d/week for 36 days and twenty-five mice were co-treated with Capecitabine and GSK-J4 for 36 days. Tumor volumes (mm3) were measured to follow recurrence. FIG. 5d: Disease-free survival was defined as the number of days between the observation of a complete response (relative tumor volume RTV compared to volume at onset of treatment<0.2) after the first round of Capecitabine treatment, and the appearance of a recurrent tumor (RTV>3). Statistical analysis was performed using a log-rank test.
# H3K27me3, EZH2 = biological target: T1, H3K27me3, EZH2 (Homo sapiens, UniProt Q15910); test: Western blotting of EZH2i-treated cells; type: cell-based; conditions: prior to chemotherapy treatment
# T1 construct: endogenous in cells; host or cells: MDA-MB-468, HCC38 or BT20
# Experimental: Western blotting. In Extended FIG. 8b/e/g, DMSO- and EZH2i-treated cells were lysed at 95° C. for 10 minutes in Laemmli buffer (50 mM Tris-HCl [pH 6.8], 2% SDS, 5% glycerol, 2 mM DTT, 2.5 mM EDTA, 2.5 mM EGTA, 4 mM Sodium Orthovanadate, 20 mM Sodium Fluoride, protease inhibitors, phosphatase inhibitors) and proteins concentrations were measured using a Pierce BCA protein Assay Kit (Thermo Fisher Scientific, Ref: 23225/23227). 10 μg of proteins were then separated on a 4-15% Mini-PROTEAN TGX Stain-Free Gel (Bio-Rad, Ref: 4568085) at 160V. After transfer, the membrane was blocked for 1 h at room temperature in PBS pH 7.4 containing 0.1% Tween-20 and 1% milk (Regilait). Incubation anti-H3K27me3 (Dilution: 1:2000, Cell Signaling, Ref: 9733) or EZH2 (Dilution: 1:2000, Cell Signaling, Ref: 5246) or Tubulin (Dilution: 1:1000, Thermo Fisher Scientific, Ref: 31460) primary antibodies diluted in PBS pH 7.4, 0.1% Tween-20 were performed at 4° C. overnight.
# T1 sequence (Q15910 whole entry): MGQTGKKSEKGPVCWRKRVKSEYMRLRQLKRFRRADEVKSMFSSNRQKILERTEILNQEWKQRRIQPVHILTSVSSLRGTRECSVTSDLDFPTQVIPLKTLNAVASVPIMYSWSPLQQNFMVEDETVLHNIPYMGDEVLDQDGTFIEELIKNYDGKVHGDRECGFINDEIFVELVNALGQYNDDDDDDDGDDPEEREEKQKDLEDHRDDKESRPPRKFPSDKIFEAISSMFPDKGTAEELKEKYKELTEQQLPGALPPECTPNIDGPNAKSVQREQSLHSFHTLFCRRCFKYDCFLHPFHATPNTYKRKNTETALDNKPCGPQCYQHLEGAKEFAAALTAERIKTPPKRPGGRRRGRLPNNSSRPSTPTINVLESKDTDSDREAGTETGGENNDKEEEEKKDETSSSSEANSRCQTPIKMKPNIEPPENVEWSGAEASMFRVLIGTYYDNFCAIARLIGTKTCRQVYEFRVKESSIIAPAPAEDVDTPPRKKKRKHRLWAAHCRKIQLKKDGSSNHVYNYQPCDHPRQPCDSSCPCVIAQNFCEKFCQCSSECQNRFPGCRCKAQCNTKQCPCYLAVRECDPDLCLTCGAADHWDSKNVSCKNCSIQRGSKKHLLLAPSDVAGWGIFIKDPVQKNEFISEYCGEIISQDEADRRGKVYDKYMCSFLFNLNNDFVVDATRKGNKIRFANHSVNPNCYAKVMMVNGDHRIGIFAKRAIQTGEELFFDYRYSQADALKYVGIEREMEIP
# T1 sequence (O75530 whole entry partner): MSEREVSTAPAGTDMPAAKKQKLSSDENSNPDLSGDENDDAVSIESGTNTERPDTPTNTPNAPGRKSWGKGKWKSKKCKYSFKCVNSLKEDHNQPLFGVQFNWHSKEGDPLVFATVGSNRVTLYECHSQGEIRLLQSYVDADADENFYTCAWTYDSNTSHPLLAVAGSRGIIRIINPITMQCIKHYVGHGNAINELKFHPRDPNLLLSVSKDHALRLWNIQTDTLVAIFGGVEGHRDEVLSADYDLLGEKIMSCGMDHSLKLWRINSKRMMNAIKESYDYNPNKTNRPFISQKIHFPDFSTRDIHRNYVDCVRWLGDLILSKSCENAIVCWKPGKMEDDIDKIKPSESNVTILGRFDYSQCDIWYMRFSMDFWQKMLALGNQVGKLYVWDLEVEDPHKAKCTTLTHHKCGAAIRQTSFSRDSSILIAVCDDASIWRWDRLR
# T1 sequence (Q15022 whole entry partner): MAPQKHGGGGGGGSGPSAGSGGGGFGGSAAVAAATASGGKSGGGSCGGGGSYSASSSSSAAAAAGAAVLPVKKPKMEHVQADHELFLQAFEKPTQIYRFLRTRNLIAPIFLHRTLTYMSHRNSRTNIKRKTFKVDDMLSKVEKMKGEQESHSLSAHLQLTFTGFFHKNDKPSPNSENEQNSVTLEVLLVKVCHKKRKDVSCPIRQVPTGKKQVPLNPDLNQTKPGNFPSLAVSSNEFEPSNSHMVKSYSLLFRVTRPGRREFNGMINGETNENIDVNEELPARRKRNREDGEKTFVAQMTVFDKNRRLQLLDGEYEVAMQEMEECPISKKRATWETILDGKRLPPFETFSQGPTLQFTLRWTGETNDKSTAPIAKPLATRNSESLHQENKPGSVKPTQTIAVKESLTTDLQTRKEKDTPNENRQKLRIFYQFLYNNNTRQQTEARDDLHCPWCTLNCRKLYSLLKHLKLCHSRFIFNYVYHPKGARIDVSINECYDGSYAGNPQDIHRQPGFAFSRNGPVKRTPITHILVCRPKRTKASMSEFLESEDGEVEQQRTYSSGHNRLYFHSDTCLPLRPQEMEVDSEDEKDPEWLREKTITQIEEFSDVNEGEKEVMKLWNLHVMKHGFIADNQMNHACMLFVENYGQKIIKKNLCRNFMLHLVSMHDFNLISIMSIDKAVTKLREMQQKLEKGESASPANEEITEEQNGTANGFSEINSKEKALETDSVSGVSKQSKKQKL
structure (smiles),measurement,setting,value
CCCCCOC(=O)Nc1nc(=O)n([C@@H]2O[C@H](C)[C@@H](O)[C@H]2O)cc1F [Capecitabine],tumor response to first round of chemotherapy,[1],"mice displayed a pathological complete response (pCR), but tumors eventually recurred"
CCCc1cc(C)n(C)c(=O)c1CN(C)C(=O)c1cc(-c2ccc(N3CCN(C(C)C)CC3)nc2)cc2c1cnn2C(C)C [UNC240034],number of persister cells,[2],no effect
same,correlation scores between lineage frequencies in 5-FU and DMSO treated population,MDA-MB-468 cells,no effect on lineage frequencies
"O=c1[nH]cc(F)c(=O)[nH]1 [5-FU, Fluorouracil]",cells surviving drug insult,"MDA-MB-468 [3]; MDA-MB-468, 5-FU, after 3 weeks",0.01 % of the initial population
same,time until surviving cells started proliferating again under chemotherapy,MDA-MB-468 [3]; MDA-MB-468 persister cells under 5-FU,10 to 15 days
same,IC50 to 5-FU of resistant cells relative to untreated population,[4],over 4 fold
CCOC(=O)CCNc1cc(N2CCc3ccccc3CC2)nc(-c2ccccn2)n1 [GSK-J4],effect when administered once persister cells have emerged,MDA-MB-468 [5]; added after onset of 5-FU rather than in combination,inefficient
same,number of persisters at day 21,MDA-MB-468 [5]; co-treatment with 5-FU,decrease in the number of persisters
same,growth of persister cells under 5-FU at day 60,"MDA-MB-468 [5]; co-treatment with 5-FU, colony forming assay",completely abolished the growth of persister cells
same,effect on untreated cancer cells,MDA-MB-468 [5]; without 5-FU,no effect on untreated cancer cells
same,confirmation of KDM6i effects on persister cells,BT20 and HCC38,confirmed
same,toxicity for the mice,tumors in mice; GSK-J4 50 mg/kg intraperitoneally,nor was toxic for the mice
same,tumor progression in absence of chemotherapy,"tumors in mice; GSK-J4 alone, 50 mg/kg intraperitoneally",did not inhibit tumor progression
same,delay to recurrence (disease-free survival),"tumors in mice; in combination with Capecitabine versus Capecitabine alone, n=25 each, p=4.0e-2",significantly increased the delay to recurrence
CC[C@H](C)n1cc(C)c2c(C(=O)NCc3c(C)cc(C)[nH]c3=O)cc(-c3ccc(N4CCNCC4)nc3)cc21 [EZH2i-2],number of persister cells,[2],increased the number of persister cells
same,EZH2 protein levels,"H3K27me3, EZH2",without perturbing EZH2 protein levels
same,H3K27me3 level,"H3K27me3, EZH2",erasing H3K27me3
same,correlation scores between lineage frequencies in 5-FU and DMSO treated population,MDA-MB-468 cells,increased correlation scores
